# “Also recorded” adds a separate entry of the source.
# Experiments:
# [1] = Maximal Electroshock Seizure Test; format: in vivo, male Carworth Farms #1 mice or Sprague-Dawley rats; details: for Protection against Maximal Electroshock-induced seizures (in words): running text; for Lowest active dose, MES (Phase I): Table V; for ED50: Mus musculus, read-out: ED50 for inhibition of seizures, MES (Phase II)
# [2] = Anticonvulsant activity, both or unspecified seizure models; format: in vivo, male Carworth Farms #1 mice or Sprague-Dawley rats; details: for Time of peak activity (Phase II): Table X, IP, challenge time
# [3] = Lethality / acute toxicity (LD50 in 24 hours); details: for Doses causing death in some of the test groups: in vivo; for Lethality (in words): dose and time given in the source
# Description: Test compounds were either dissolved in 0.9% saline, or suspended in either 30% polyethylene glycol 400 in 0.9% saline or 0.2% suspending agent like polyoxyethylene glycol or Tween 80 in 0.9% saline prior to injection into male Carworth Farms #1 mice or Sprague-Dawley rats.
# In Phase I identification of anticonvulsant activity, test compounds were given intraperitoneally (IP) at 30, 100, 300 and, in some cases, 600 milligrams per kilogram (mg/kg) of body weight and protection against Maximal Electroshock and/or Metrazol-induced seizures was determined 30 minutes, 4 hours, or later. […] Subsequently the routine protocol was modified and certain of the test compounds (see Tables, infra) re-evaluated following subcutaneous (SC) injection at periods of up to 8 hours post injection.
# All statistics were obtained by probit analyses.
# [4] = Subcutaneous Pentylenetetrazol (Metrazol) Seizure Threshold Test; format: in vivo, male Carworth Farms #1 mice or Sprague-Dawley rats; details: for Protection against Metrazol-induced seizures (in words): running text; for Lowest active dose, Metrazol (Phase I): Table V; for ED50: Mus musculus, read-out: ED50 for inhibition of seizures, Metrazol (Phase II)
# [5] = Rotating rod neurotoxicity; details: dose and time given in the source
# [6] = Table X, IP, at time of peak activity
# [7] = Table X, IP, challenge time 30 min
# [8] = Table X, IP, challenge time 4 hrs
# [9] = Table X, SC, challenge time 30 min
# [10] = Table X, SC, challenge time 4 hrs
compound,measurement,setting,value
O=C([O-])c1ccc([N+](=O)[O-])cc1O.O=C([O-])c1ccc([N+](=O)[O-])cc1O.[Cu+2] [Cu(II)(4-nitrosalicylate)2],"Anticonvulsant activity, Maximal Electroshock (Phase I)","[1]; Table II, IP",I
same,Anticonvulsant activity (in words),[2]; running text,effective in preventing seizures
same,Doses causing death in some of the test groups,[3],higher than 100 mg/kg
O=C(O)c1ccccc1[O-].O=C(O)c1ccccc1[O-].[Cu+2] [Cu(II)(salicylate)2],ED50 for protection against Maximal Electroshock-induced seizures,"[1]; Phase II, SC",360 mg/kg
same,"Time of peak effect, inhibition of Maximal Electroshock induced seizures","[1]; SC, 600 mg/kg, Phase II",7 h
same,Inhibition of Maximal Electroshock-induced seizure,"[1]; SC, 600 mg/kg, at 24 hours, Phase II",37%
same,"Anticonvulsant activity, Maximal Electroshock (Phase I)","[1]; Table II, SC",I
same,Protection against Maximal Electroshock-induced seizures (in words),[1],onset of protection against Maximal Electroshock-induced seizure was slower but the activity was prolonged over the 24-hour period; also recorded: inactive in protecting against the Maximal Electroshock-induced seizure in routine Phase I studies; also recorded: active in protecting against this seizure when higher doses were used and the activity was evaluated at different time periods
same,Anticonvulsant activity (in words),[2]; running text,effective at the higher doses studied and for prolonged periods of up to 4 hours
same,LD50,"[3]; 24-hour, Phase II",441 mg/kg
same,ED50 for protection against Metrazol-induced seizures,"[4]; Phase II, SC",38 mg/kg
same,"Time of peak effect, inhibition of Metrazol-induced seizures","[4]; SC, 100 mg/kg, Phase II",2 h
same,Protection against Metrazol-induced seizures (in words),[4],rapid onset of protection against the Metrazol-induced seizure which decreases over the extrapolated period of 7 hours
Nc1ccc(C(=O)[O-])c(O)c1.Nc1ccc(C(=O)[O-])c(O)c1.[Cu+2] [Cu(II)(4-aminosalicylate)2],"Anticonvulsant activity, Maximal Electroshock (Phase I)","[1]; Table II, IP",I
same,Anticonvulsant activity (in words),[2]; running text,effective in preventing seizures
same,Doses causing death in some of the test groups,[3],higher than 300 mg/kg
same,Lethality (in words),[3],Lethal at higher doses
Cu(II) Salicylidene-L-valinate,"Anticonvulsant activity, Maximal Electroshock (Phase I)","[1]; Table IV, IP",I
same,"Anticonvulsant activity, Maximal Electroshock (Phase I)","[1]; Table IV, SC",I
same,Lethality (in words),[3],Lethal at higher doses
same,Lethality (in words),[3]; listed as salicylidene-L-valinate complex,caused lethality at higher doses
CCC1(c2ccccc2)C(=O)[N-]C(=O)NC1=O.CCC1(c2ccccc2)C(=O)[N-]C(=O)NC1=O.O.O.O.[Cu+2] [Cu(II)(Phenobarbital)2 (H2 O)3],"ED50 for inhibition of seizures, MES (Phase II)",[1]; [6],16 mg/kg
same,"Lowest effective dose, MES (Phase I)",[1]; [7],30 milligrams per kilogram of bod
same,"Lowest effective dose, MES (Phase I)",[1]; [8],30 milligrams per kilogram of bod
same,"Lowest effective dose, MES (Phase I)",[1]; [9],30 milligrams per kilogram of bod
same,"Lowest effective dose, MES (Phase I)",[1]; [10],30 milligrams per kilogram of bod
same,Time of peak activity (Phase II),[2],2 h
same,"ED50 for inhibition of seizures, Metrazol (Phase II)",[4]; [6],10 mg/kg
same,"Lowest effective dose, Metrazol (Phase I)",[4]; [7],5 milligrams per kilogram of bod
same,"Lowest effective dose, Metrazol (Phase I)",[4]; [8],5 milligrams per kilogram of bod
same,"Lowest effective dose, Metrazol (Phase I)",[4]; [9],30 milligrams per kilogram of bod
same,"Lowest effective dose, Metrazol (Phase I)",[4]; [10],30 milligrams per kilogram of bod
CCC1(c2ccccc2)C(=O)[N-]C(=O)NC1=O.CCC1(c2ccccc2)C(=O)[N-]C(=O)NC1=O.CCC1(c2ccccc2)C(=O)[N-]C(=O)NC1=O.CCC1(c2ccccc2)C(=O)[N-]C(=O)NC1=O.O.O.[Cu+2].[Na+].[Na+] [Na2 [Cu(II)(Phenobarbital)4](H2 O)2],"ED50 for inhibition of seizures, MES (Phase II)",[1]; [6],25 mg/kg
same,"Lowest effective dose, MES (Phase I)",[1]; [7],30 milligrams per kilogram of bod
same,"Lowest effective dose, MES (Phase I)",[1]; [8],100 milligrams per kilogram of bod
same,"Lowest effective dose, MES (Phase I)",[1]; [9],30 milligrams per kilogram of bod
same,"Lowest effective dose, MES (Phase I)",[1]; [10],30 milligrams per kilogram of bod
same,Time of peak activity (Phase II),[2],6 h
same,"ED50 for inhibition of seizures, Metrazol (Phase II)",[4]; [6],20 mg/kg
same,"Lowest effective dose, Metrazol (Phase I)",[4]; [7],30 milligrams per kilogram of bod
same,"Lowest effective dose, Metrazol (Phase I)",[4]; [8],100 milligrams per kilogram of bod
same,"Lowest effective dose, Metrazol (Phase I)",[4]; [9],30 milligrams per kilogram of bod
same,"Lowest effective dose, Metrazol (Phase I)",[4]; [10],100 milligrams per kilogram of bod
Cu(II)2 (phenylacetate)4,Rotating rod toxicity (in words),[5],Rotating rod toxicity at 300 mg/kg
same,Protection against Metrazol-induced seizures (in words),[4],effective in protecting against Metrazol-induced seizures
CC(=O)Nc1ccc(C(=O)[O-])c(O)c1.CC(=O)Nc1ccc(C(=O)[O-])c(O)c1.[Cu+2] [Cu(II)(4-acetylaminosalicylate)2],Anticonvulsant activity (in words),[2]; running text,effective in preventing seizures
same,Lethality (in words),[3],Lethal at 100 mg/kg at 4 hours
same,"Anticonvulsant activity, Metrazol (Phase I)","[4]; Table II, IP",I
Cu(II)Carbamazepine(H2 O)2,"Lowest effective dose, MES (Phase I)",[1]; [7],10 milligrams per kilogram of bod
same,"Lowest effective dose, MES (Phase I)",[1]; [8],100 milligrams per kilogram of bod
same,"Lowest effective dose, MES (Phase I)",[1]; [9],30 milligrams per kilogram of bod
same,"Lowest effective dose, MES (Phase I)",[1]; [10],100 milligrams per kilogram of bod
same,Anticonvulsant activity (in words),[2]; running text,effective anticonvulsant
same,"Lowest effective dose, Metrazol (Phase I)",[4]; [7],30 milligrams per kilogram of bod
same,"Lowest effective dose, Metrazol (Phase I)",[4]; [8],I
same,"Lowest effective dose, Metrazol (Phase I)",[4]; [9],300 milligrams per kilogram of bod
same,"Lowest effective dose, Metrazol (Phase I)",[4]; [10],300 milligrams per kilogram of bod
same,Protection against Metrazol-induced seizures (in words),[4],did not potentiate Metrazol seizures
Cc1ncc(CO)c(C=N[C@@H](CO)C(=O)[O-])c1[O-].O.[Cu+2] [Cu(II)Pyridoxylidene-L-serinate(H2 O)],"Lowest active dose, MES (Phase I)","[1]; IP, challenge time 30 min",I
same,"Lowest active dose, MES (Phase I)","[1]; IP, challenge time 4 hrs",I
same,Anticonvulsant activity (in words),[2]; running text,more effective but only protected against the Metrazol-induced seizure
same,"Lowest active dose, Metrazol (Phase I)","[4]; IP, challenge time 30 min",100 mg/kg of body weight
same,"Lowest active dose, Metrazol (Phase I)","[4]; IP, challenge time 4 hrs",100 mg/kg of body weight
CC[C@H](C)[C@H](N)C(=O)[O-].CC[C@H](C)[C@H](N)C(=O)[O-].[Cu+2] [Cu(II)(L-isoleucinate)2],Anticonvulsant activity (in words),[2]; listed as isoleucine complex,inhibited both the Maximal Electroshock and Metrazol-induced seizures in these Phase I tests
same,Anticonvulsant activity (in words),[2]; running text,found to have anticonvulsant activity
same,Lethality (in words),[3],Lethal at higher doses
Cu(II)Pyridoxylidene-L-valinate(H2 O),"Lowest active dose, MES (Phase I)","[1]; IP, challenge time 30 min",I
same,"Lowest active dose, MES (Phase I)","[1]; IP, challenge time 4 hrs",I
same,Anticonvulsant activity (in words),[2]; running text,no activity
same,"Lowest active dose, Metrazol (Phase I)","[4]; IP, challenge time 30 min",I
same,"Lowest active dose, Metrazol (Phase I)","[4]; IP, challenge time 4 hrs",I
"CN1C(=O)CN=C(c2ccccc2)c2cc(Cl)ccc21 [Diazepam, reference compound]",ED50,[1]; ip,19 mg/kg
same,Time of peak activity (Phase II),[2],1 h
same,ED50,[4]; ip,0.17 mg/kg
"CCCC(CCC)C(=O)O [Valproic Acid, reference compound]",ED50,[1]; [6],272 mg/kg
same,Protection against Maximal Electroshock-induced seizures (in words),[1],weakly effective against Maximal Electroshock-induced seizures
same,Time of peak activity (Phase II),[2],0.25 h
same,ED50,[4]; [6],149 mg/kg
same,Protection against Metrazol-induced seizures (in words),[4],more effective against Metrazol-induced seizures
Cu(II)Pyridoxylidene-L-phenylalaninate(H2 O)2,"Lowest active dose, MES (Phase I)","[1]; IP, challenge time 30 min",I
same,"Lowest active dose, MES (Phase I)","[1]; IP, challenge time 4 hrs",I
same,Anticonvulsant activity (in words),[2]; running text,no activity
same,"Lowest active dose, Metrazol (Phase I)","[4]; IP, challenge time 30 min",I
same,"Lowest active dose, Metrazol (Phase I)","[4]; IP, challenge time 4 hrs",I
Cc1ncc(CO)c(C=NCC(=O)[O-])c1[O-].Cc1ncc(CO)c(C=NCC(=O)[O-])c1[O-].O.O.O.[Cu+2].[Cu+2] [Cu(II)Pyridoxylideneglycinate(H2 O)1.5],"Lowest active dose, MES (Phase I)","[1]; IP, challenge time 30 min",300 mg/kg of body weight
same,"Lowest active dose, MES (Phase I)","[1]; IP, challenge time 4 hrs",I
same,Anticonvulsant activity (in words),[2]; running text,protected against both types of seizure
same,"Lowest active dose, Metrazol (Phase I)","[4]; IP, challenge time 30 min",100 mg/kg of body weight
same,"Lowest active dose, Metrazol (Phase I)","[4]; IP, challenge time 4 hrs",I

# From US4758555A, “Method for treating convulsions and epilepsy with organic copper compounds” (priority 1986, dated 1988)
